Data taken from patent publication US20260053773A1, “PHARMACEUTICAL COMPOSITION AND USE THEREOF” (AUHUI TONGOO PHARMACEUTICAL TECHNOLOGY CO., LTD., priority 2022, published 2026).

system: not listed separately; assay: Inhibition of COM crystal growth in three growth directions, inhibitors alone and in combination pairs; conditions: [001] direction; inhibitor alone
Description: Different concentrations of citric acid (CA) and ellagic acid (EA) were added to 25 ml of deionized water, the supersaturation of the solution was controlled at S=2.4, and the growth process of the crystal was monitored.
The hollow symbols in the figure represent the concentration required for a single inhibitor to achieve a certain effect, and the same solid symbols represent the concentration required for a combination of the inhibitors to achieve the same effect.
Different concentrations of citric acid (CA) and gallic acid (GaA) were added to 25 ml of deionized water, and the growth process of the crystal was monitored.
Different concentrations of citric acid (CA) and pyrogallol (PGA) were added to 25 ml of deionized water, and the growth process of the crystal was monitored.
Different concentrations of citric acid (CA) and protocatechuic acid (PrA) were added to 25 ml of deionized water, and the growth process of the crystal was monitored.
Comparative Example 1 differed from Example 1 merely in that ellagic acid was replaced with albumin, and the other preparation methods were the same as those in Example 1.
Comparative Example 2 differed from Example 1 merely in that ellagic acid was replaced with o-hydroxybenzoic acid, and the other preparation methods were the same as those in Example 1.
Different concentrations of hydroxycitric acid (HCA) and ellagic acid (EA) were added to 25 ml of deionized water, supersaturation of the solution was controlled at S=2.4, and the growth process of the crystal was monitored.
Different concentrations of hydroxycitric acid (HCA) and gallic acid (GaA) were added to 25 ml of deionized water, and the growth process of the crystal was monitored.
Different concentrations of potassium citrate (KCA) and ellagic acid (EA) were added to 25 ml of deionized water, the supersaturation of the solution was controlled at S=2.4, and the growth process of the crystal was monitored.
Different concentrations of potassium citrate (KCA) and gallic acid (GaA) were added to 25 ml of deionized water, and the growth process of the crystal was monitored.

Row | Structure (SMILES) | concentration of the single inhibitor achieving 10% inhibition of crystal growth | concentration of the single inhibitor achieving 30% inhibition of crystal growth | concentration of the single inhibitor achieving 70% inhibition of crystal growth
1 | O=C(O)CC(O)(C(=O)O)C(O)C(=O)O (stereo not drawn) [HCA, hydroxycitric acid] | 0.0088 mM | 0.0281 mM | 0.1003 mM
2 | O=C([O-])CC(O)(CC(=O)[O-])C(=O)[O-].[K+].[K+].[K+] [KCA, potassium citrate] | 0.0106 mM | 0.0369 mM | 0.1253 mM
3 | Oc1cccc(O)c1O [PGA, pyrogallol] | 0.0021 mM | 0.0073 mM | 0.0245 mM
4 | O=C(O)c1ccc(O)c(O)c1 [PrA, protocatechuic acid] | 0.0255 mM | 0.0982 mM | –

same assay, conditions: [001] direction; inhibitor alone; read-out: concentration of the single inhibitor achieving 50% inhibition of crystal growth

Row | Structure (SMILES) | IC50
5 | O=C(O)CC(O)(C(=O)O)C(O)C(=O)O (stereo not drawn) [HCA, hydroxycitric acid] | 56.1 µM
6 | O=C([O-])CC(O)(CC(=O)[O-])C(=O)[O-].[K+].[K+].[K+] [KCA, potassium citrate] | 70.9 µM
7 | Oc1cccc(O)c1O [PGA, pyrogallol] | 14.2 µM
8 | O=C(O)c1ccc(O)c(O)c1 [PrA, protocatechuic acid] | 264 µM

same assay, conditions: [021] direction; inhibitor alone

Row | Structure (SMILES) | concentration of the single inhibitor achieving 10% inhibition of crystal growth | concentration of the single inhibitor achieving 30% inhibition of crystal growth | concentration of the single inhibitor achieving 70% inhibition of crystal growth
9 | O=C(O)CC(O)(C(=O)O)C(O)C(=O)O (stereo not drawn) [HCA, hydroxycitric acid] | 0.0096 mM | 0.0320 mM | 0.1104 mM
10 | O=C([O-])CC(O)(CC(=O)[O-])C(=O)[O-].[K+].[K+].[K+] [KCA, potassium citrate] | 0.0123 mM | 0.0401 mM | 0.1369 mM
11 | Oc1cccc(O)c1O [PGA, pyrogallol] | 0.0018 mM | 0.0062 mM | 0.0210 mM
12 | O=C(O)c1ccc(O)c(O)c1 [PrA, protocatechuic acid] | 0.0187 mM | 0.0702 mM | –

same assay, conditions: [021] direction; inhibitor alone; read-out: concentration of the single inhibitor achieving 50% inhibition of crystal growth

Row | Structure (SMILES) | IC50
13 | O=C(O)CC(O)(C(=O)O)C(O)C(=O)O (stereo not drawn) [HCA, hydroxycitric acid] | 61 µM
14 | O=C([O-])CC(O)(CC(=O)[O-])C(=O)[O-].[K+].[K+].[K+] [KCA, potassium citrate] | 79.4 µM
15 | Oc1cccc(O)c1O [PGA, pyrogallol] | 12.1 µM
16 | O=C(O)c1ccc(O)c(O)c1 [PrA, protocatechuic acid] | 186 µM

same assay, conditions: [121] direction; inhibitor alone

Row | Structure (SMILES) | concentration of the single inhibitor achieving 10% inhibition of crystal growth | concentration of the single inhibitor achieving 30% inhibition of crystal growth | concentration of the single inhibitor achieving 70% inhibition of crystal growth
17 | O=C(O)CC(O)(C(=O)O)C(O)C(=O)O (stereo not drawn) [HCA, hydroxycitric acid] | 0.0110 mM | 0.0367 mM | 0.1240 mM
18 | O=C([O-])CC(O)(CC(=O)[O-])C(=O)[O-].[K+].[K+].[K+] [KCA, potassium citrate] | 0.0135 mM | 0.0451 mM | 0.1547 mM
19 | Oc1cccc(O)c1O [PGA, pyrogallol] | 0.0027 mM | 0.0091 mM | 0.0309 mM
20 | O=C(O)c1ccc(O)c(O)c1 [PrA, protocatechuic acid] | 0.0307 mM | 0.1174 mM | –

same assay, conditions: [121] direction; inhibitor alone; read-out: concentration of the single inhibitor achieving 50% inhibition of crystal growth

Row | Structure (SMILES) | IC50
21 | O=C(O)CC(O)(C(=O)O)C(O)C(=O)O (stereo not drawn) [HCA, hydroxycitric acid] | 72 µM
22 | O=C([O-])CC(O)(CC(=O)[O-])C(=O)[O-].[K+].[K+].[K+] [KCA, potassium citrate] | 88.1 µM
23 | Oc1cccc(O)c1O [PGA, pyrogallol] | 17.7 µM
24 | O=C(O)c1ccc(O)c(O)c1 [PrA, protocatechuic acid] | 316 µM

same assay, conditions: inhibition of COM crystal growth

Row | Structure (SMILES) | effect compared with citric acid
25 | O=C([O-])CC(O)(CC(=O)[O-])C(=O)[O-].[K+].[K+].[K+] [KCA, potassium citrate] | almost the same

system: human proximal tubule cells (HK-2); assay: Cell death/survival of HK-2 cells exposed to COM crystals; type: cell-based; conditions: polyphenol (20 μM GaA, 20 μM EA, 40 μM PGA, 200 μM PrA) combined with citric acid 200 μM
Description: Studies have shown that reducing calcium oxalate crystallization, crystal-cell interactions, and cellular damage can prevent stone formation to some extent. On this basis, the present example further verified the combined effect of the pharmaceutical composition of citric acid (200 μM) and polyphenol molecules (20 μM GaA, 20 μM EA, 40 μM PGA, 200 µM PrA) in reducing cellular damage and crystal adhesion.
In order to explore the combined effects of the pharmaceutical composition on reducing crystal toxicity to cells, an in vitro model of direct exposure to COM crystals was selected in the present example to detect short-term cellular damage. In a culture medium environment with or without inhibitors, mature human proximal tubule cells (HK-2) were exposed to COM crystal suspension medium for the indicated times. […] However, in the presence of CA, the amount of cell death was reduced by 50% (FIG. 6).

Row | Structure (SMILES) | synergistic enhancement order in improving cell activity
26 | Oc1cccc(O)c1O [PGA, pyrogallol] | GaA>PcA>PGA>EA
27 | O=C(O)c1ccc(O)c(O)c1 [PrA, protocatechuic acid] | GaA>PcA>PGA>EA
